Results reported in patent EP0253650A2, “Improvements relating to benzothiophene derivatives” (ELI LILLY AND COMPANY, priority 1986, dated 1988).

Test system: guinea pigs
Assay: Antigen induced anaphylaxis in guinea pigs (ovalbumin aerosol challenge of sensitized animals)
Format: in vivo
Details: percent inhibition of anaphylaxis (severity index vs placebo), two hours prior to aerosol challenge
Procedure: Following the general procedure taught by Andersson, Brit. J. Pharmacol., 69, 467 (1980), mixed sex Hartley strain guinea pigs (250-300 g) were sensitized to ovalbumin by a single injection of 1 mcg of ovalbumin mixed with 50 mg of aluminum hydroxide per animal. These animals were used 21 to 26 days later for aerosol challenge with ovalbumin.
Anaphylaxis was induced by exposure to an aerosol of 10 mg of ovalbumin per milliliter of water for 10 minutes delivered by a Tri-R venturi nebulizer, particle size 2 to 5 micron diameter, at a delivery rate of 0.4 ml of solution per minute. The guinea pigs were placed in specially constructed chamber for exposure to the aerosol. The aerosol was introduced from the bottom of the chamber and exhausted at the top. A baffle above the chamber inlet port provided even distribution of the aerosol throughout the chamber. The animals were supported above the inlet on a wire mesh disc. The chamber was under slight negative pressure to enhance the exhaust of the aerosol which was passed through a calcium chloride trap followed by a super-cooled condenser trap.
Groups of five guinea pigs were treated with the compounds of this invention, clinical anti-asthmatic agents, or placebo (vehicle only) two hours prior to the aerosol challenge. All the animals also received 3 mg/kg pyrillamine orally two hours prior to the aerosol challenge in order to blunt the histamine component of the anaphylaxis. The compounds were administered orally as a suspension in 10% acacia or intraperitoneally in 10% acacia.
The number of animals that responded to the aerosol challenge for each of the above parameters as well as the time for the response to occur were recorded. The data were analyzed by comparing the severity index (the sum of the number of animals that coughed, collapsed, and/or died) between the treated and placebo group of guinea pigs. Thus, the maximum severity index for each group of five guinea pigs is 15. On the average, the severity index for the placebo group was 10-12. The percent inhibition of anaphylaxis was determined by the following formula: [formula] where Sd is the severity index for the drug treated animals and Sp is the severity index of the placebo treated animals.

Row | Compound | Percent Inhibition (dose 10 mg/kg, I.P.) [%] | Percent Inhibition (dose 30 mg/kg, I.P.) [%] | Percent Inhibition (dose 50 mg/kg, I.P.) | Percent Inhibition (dose 50 mg/kg, P.O.) [%]
1 | CCOc1cc2cc(C(=O)N(CC)CC)sc2cc1OCC [Example 3, N,N-Diethyl-5,6-diethoxybenzo[b]thiophene-2-carboxamide] | 44 | 89 | 82% | 38
2 | CCOc1cc2cc(C(=O)Nc3nnn[nH]3)sc2cc1OCC [Example 4, 5,6-Diethoxy-N-1H-tetrazol-5-ylbenzo[b]thiophene-2-carboxamide] |  |  |  | 56
3 | CCOc1cc2cc(C#N)sc2cc1OCC [Example 5, 5,6-Diethoxybenzo[b]thiophene-2-carbonitrile] |  | 69 | 74-84% | 22
4 | CCOc1cc2cc(-c3nnn[nH]3)sc2cc1OCC [Example 6, 5-(5,6-Diethoxybenzo[b]thien-2-yl)-1H-tetrazole] |  |  |  | 43
5 | CCOc1cc2cc(CO)sc2cc1OCC [Example 7, 5,6-Diethoxybenzo[b]thiophene-2-methanol] |  | 89 | 74% | 68
